Data: patent US20120288604A1, “Organic Compounds” (Givaudan S.A., priority 2009, published 2012)

What was measured:
[1] = test system: panel of 15 subjects all of whom were sweet sensitive; assay: Sensory ranking to find the sucrose concentration iso-intense to aqueous para-ethoxy benzonitrile (R-index analysis); assay type: in vivo
Experimental: The test samples contained para-ethoxy benzonitrile in water. The control samples were aqueous solutions of sucrose at 0.5%, 1.0%, 1.5% and 2.0%. The sensory evaluations were conducted as follows. All samples were presented at ambient temperature in 15 ml aliquots at random to a panel of 15 subjects all of whom were sweet sensitive of varying sensitivity. After tasting each sample, panelists rinsed their mouths thoroughly with water at ambient temperature prior to tasting subsequent samples. The tastings were carried out in two replications in one session. Panelists were asked to rank the solutions whilst wearing nose plugs. They were asked to rank from least sweet to most sweet.
(§1) The data were subjected to an R-Index analysis. […] An R-index from 50% to the critical value means the sweetness enhancer sample has an equivalent sweetness to the compared sucrose sample.

[2] = test system: panel of 15 subjects all of whom were sweet sensitive; assay: Comparative sensory ranking of sucrose solutions against 7% sucrose + para-ethoxy benzonitrile (R-index analysis); assay type: in vivo
Experimental: The test samples (“Test”) contained 7% sucrose and 20 ppm of para-ethoxy benzonitrile in water. The test samples were compared with control samples containing 7, 8, 9, and 10% sucrose in water. The sensory evaluations were conducted as follows. All samples were presented at ambient temperature in 15 ml aliquots at random to a panel of 15 subjects all of whom were sweet sensitive of varying sensitivity. After tasting each sample, the mouth was rinsed thoroughly with water at ambient temperature prior to tasting the next sample. The tastings were carried out in two replications in one session. Panelists were asked to rank the solutions whilst wearing nose plugs. They were asked to rank from least sweet to most sweet.
as §1

[3] = Tsuzuki et al, J. of chemical and engineering data (1971), 16(1), 108-11; cited from earlier work

## CCOc1ccc(C#N)cc1 [para-ethoxy benzonitrile]
[1]; 10 ppm in water vs. 0.5% sucrose
  Significantly different (p < 0.05): No
[1]; 10 ppm in water vs. 0.5% sucrose, critical value 64.61%
  R-index: 51%
[1]; 10 ppm solution in water
  iso sweet sucrose solution: 0.5%
[1]; 20 ppm in water vs. 0.5% sucrose
  Significantly different (p < 0.05): Yes
[1]; 20 ppm in water vs. 0.5% sucrose, critical value 64.61%
  R-index: 81%
[1]; 20 ppm in water vs. 1.0% sucrose
  Significantly different (p < 0.05): Yes
[1]; 20 ppm in water vs. 1.0% sucrose, critical value 35.39%
  R-index: 30%
[1]; 20 ppm solution in water
  iso-sweet sucrose solution, by interpolation: 0.75%
[1]; 20 ppm solution vs. 0.5% sucrose
  perceived sweetness relative to sucrose: significantly sweeter
[1]; 20 ppm solution vs. 1% sucrose
  perceived sweetness relative to sucrose: significantly less sweet
[2]; 20 ppm in 7% sucrose, Examples 1 and 2 taken together
  sweetness enhancement (additive or synergistic): synergistic effect
[2]; Test (7% sucrose + 20 ppm in water)
  iso-sweet sucrose, by interpolation: 8.5%
[2]; Test (7% sucrose + 20 ppm in water) vs. 7% sucrose
  Significantly different (p < 0.05): Yes
[2]; Test (7% sucrose + 20 ppm in water) vs. 7% sucrose, critical value 64.61%
  R-index: 95%
[2]; Test (7% sucrose + 20 ppm in water) vs. 8% sucrose
  Significantly different (p < 0.05): Yes
[2]; Test (7% sucrose + 20 ppm in water) vs. 8% sucrose, critical value 64.61%
  R-index: 73%
[2]; Test (7% sucrose + 20 ppm in water) vs. 9% sucrose
  Significantly different (p < 0.05): Yes
[2]; Test (7% sucrose + 20 ppm in water) vs. 9% sucrose, critical value 35.39%
  R-index: 28%
[2]; Test (7% sucrose + 20 ppm in water) vs. 10% sucrose
  Significantly different (p < 0.05): Yes
[2]; Test (7% sucrose + 20 ppm in water) vs. 10% sucrose, critical value 35.39%
  R-index: 10%
[2]; Test (7% sucrose + 20 ppm in water), from the data of Example 1
  iso-sweet sucrose expected were the effect merely additive: 7.75%
[2]; Test (7% sucrose + 20 ppm) vs. 7 and 8% sucrose solutions
  perceived sweetness relative to sucrose: significantly sweeter
[2]; Test (7% sucrose + 20 ppm) vs. 9% and 10% sucrose
  perceived sweetness relative to sucrose: less sweet

## CCOc1ccc(C#N)cc1 [ethoxy benzonitrile]
[3]
  taste as described: sweet or sweetish
